Read-outs that look alike come from different tables or passages of the source.
Tests used:
[1] = Plasma stability, murine plasma; assay type: in vitro ADME, mouse
Experimental: (§1) Samples were taken at 0, 30, 60, 120, 180, and 360 min to quantitate the disappearance of the valine conjugates and appearance of a cleaved parent. The matrix stability assay in plasma and the quantitative analysis of samples by UV-VIS HPLC were performed according to the standard protocol at Charles River Laboratories, Inc. (Wilmington, MA, USA).

[2] = Plasma stability, human plasma; assay type: in vitro ADME
Experimental: as §1

THLE-2 = experiment: CCK-8 cytotoxicity assay, THLE-2; assay type: cell-based; conditions: Homo sapiens, 72 h treatment
Experimental: (§2) The cytotoxicity of compounds was determined by the CCK-8 assay (Cell Counting Kit-8, CK04, Dojindo Molecular Technologies, Kumamoto, Japan). Cell lines were plated at 10,000 cells/well in 96-well plates and incubated overnight to allow for adherence (5% CO2, 37 °C). […] Cells were placed back in the incubator for 72 h treatment. CCK-8 reagent was added, and plates were further incubated 1–4 h as directed by the supplier’s instructions. Optical density was measured using a Biotek Synergy H1 plate reader at 450 nm. Primary hepatocytes were plated at 30,000 cells or 50,000 cells/well and maintained according to the technical information bulletin provided by the supplier. Upon treatment, maintenance media were supplemented with 10% FBS and fresh test compound for all subsequent media changes, as directed.

Primary Male Hepatocytes = experiment: CCK-8 cytotoxicity assay, primary male hepatocytes; assay type: cell-based; conditions: 72 h treatment
Experimental: as §2

SNU475 = experiment: CCK-8 cytotoxicity assay, SNU475; assay type: cell-based, human; conditions: 72 h treatment
Experimental: as §2

SNU475 cells [3] = experiment: Hollow fiber assay (HFA) model of AR-SV HCC; assay type: in vivo; conditions: BID PO one week; niclosamide 75, valine–niclosamide 106.1, valine–compound #7 87.3, compound #7 62.9 mg/kg; nude mice
Excerpt: The hollow fiber procedures were based upon those developed by Hollingshead et al. with technical consultation kindly provided by Drs. Joanna Burdette and Dan Lantvit (University of Illinois Chicago, Chicago, IL, USA). […] In order to utilize a PO dosing approach with the HFA, we extended the traditional HFA timeline to establish angiogenesis, as noted in the literature. […] Hollow fibers (KrosFlo Implant Membranes, M138615, Repligen, Waltham, MA, USA) were filled with 3 × 10^6 SNU475 cells/mL per length and heat-sealed into 2 cm lengths on Day −1. On Day 0, three fibers were implanted into 20-week-old male outbred homozygous athymic nude mice (Foxn1^nu/Foxn1^nu, The Jackson Laboratory, Bar Harbor, ME, USA) subcutaneously parallel to the spine. Following a 14-day waiting period to allow for angiogenesis around the fibers, treatment was initiated. […] On Day 21, mice were euthanized and hollow fibers were explanted. The MTT assay was performed according to the KrosFlo Implant Membrane protocol utilizing Thiazolyl Blue Tetrazolium Bromide (M2128, MilliporeSigma, Burlington, MA, USA).

[4] = Single-dose IV and PO pharmacokinetics in mice; assay type: in vivo, male C57BL/6 mice
Experimental: The in-life study and quantitative analysis of plasma samples using LC/MS were performed at Charles River Laboratories, Inc. (Wilmington, MA, USA).

AR-SV = biological target: T1, AR-SV (Homo sapiens, UniProt P10275); experiment: AR protein ELISA in SNU475 cells; assay type: cell-based; conditions: 10 µM, 24 hours, AR ELISA (Figure S3A)
T1 sequence (P10275 1-628): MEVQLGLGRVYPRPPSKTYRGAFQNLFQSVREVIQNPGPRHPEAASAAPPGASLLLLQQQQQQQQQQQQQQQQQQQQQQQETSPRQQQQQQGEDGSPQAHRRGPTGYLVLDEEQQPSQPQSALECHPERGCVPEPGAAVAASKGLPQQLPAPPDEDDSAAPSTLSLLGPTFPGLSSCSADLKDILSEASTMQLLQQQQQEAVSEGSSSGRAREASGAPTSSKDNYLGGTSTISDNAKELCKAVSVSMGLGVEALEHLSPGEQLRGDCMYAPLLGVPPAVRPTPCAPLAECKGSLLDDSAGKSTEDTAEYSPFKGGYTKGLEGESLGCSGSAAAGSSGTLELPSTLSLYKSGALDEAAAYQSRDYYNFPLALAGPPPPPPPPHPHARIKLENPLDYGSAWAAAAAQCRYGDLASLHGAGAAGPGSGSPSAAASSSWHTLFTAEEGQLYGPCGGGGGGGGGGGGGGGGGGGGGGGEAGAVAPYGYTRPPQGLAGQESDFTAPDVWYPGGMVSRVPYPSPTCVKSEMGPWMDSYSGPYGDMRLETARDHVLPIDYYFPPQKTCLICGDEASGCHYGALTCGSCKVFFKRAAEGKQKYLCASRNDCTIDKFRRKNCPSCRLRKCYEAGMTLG
Experimental: (§3) Figure S3. […] (A) SNU475 cells were treated with 10 µM of each
(§4) compound for 24 hours before analysis by AR ELISA. (B ) (Left) Cellular invasion assay was performed on SNU475
(§5) Mean + SD One way ANOVA with
(§6) (Right) Cell viability was
(§7) (1 picture or pasted object on this page, not shown here)

SNU423 = experiment: CCK-8 cytotoxicity assay, SNU423; assay type: cell-based; conditions: Homo sapiens, SNU-423, 72 h treatment
Experimental: as §2

HepG2 = experiment: CCK-8 cytotoxicity assay, HepG2; assay type: cell-based, human; conditions: 72 h treatment
Experimental: as §2

SNU475 cells [5] = experiment: Cellular invasion assay, SNU475; assay type: cell-based, human; conditions: 1 µM and 10 µM, 48 h of treatment
Experimental: The BioCoat Matrigel invasion assay was performed according to the manufacturer’s instructions (BioCoat Matrigel Invasion Chambers, 354480, Corning, Corning, NY, USA). AR-negative clones and parental lines (SNU475 and HCCLM3) were hormone-deprived in phenol red-free RPMI1640 with 5% csFBS (±Pen-Strep) for 24 h. A total of 40,000 cells were suspended in a well insert in 0.5 mL of phenol red-free medium without csFBS over a well of 0.75 mL phenol red-free medium with 5% csFBS as a chemoattractant and incubated for 24 h. Invaded cells were fixed in 4% paraformaldehyde and stained with 0.1% crystal violet in 20% methanol. Cells in 10 different and non-overlapping fields of each membrane were photographed and counted. The Fluorometric QCM™ 24-Well Cell Invasion Assay (ECM 554, MilliporeSigma, Burlington, MA, USA) was executed as per the manufacturer’s protocol using 1.25 × 10^5 cells in 250 μL of serum-free medium and incubated for 24–72 h. Following cell lysis and staining with CyQuant GR Dye, fluorescence was measured in a plate reader using a 480/520 nm filter set.
as §3, §4, §5, §6, §7

SNU475 cells [6] = experiment: Cell viability under invasion assay conditions; assay type: cell-based, human; conditions: 1 µM
Experimental: as §3, §4, §5, §6, §7

[7] = 40 mg/kg dose PO; listed as niclosamide; cited from earlier work
[8] = IV, 2 mg/kg (valine conjugates 2 mg/kg EQV)
[9] = IV, 2 mg/kg (valine conjugates 2 mg/kg EQV), non-compartmental analysis
[10] = PO, 40 mg/kg (valine conjugates 40 mg/kg EQV)
[11] = male, C57BL/6, mouse, plasma, iv, 2 mg/kg, IV, 2 mg/kg (valine conjugates 2 mg/kg EQV), analyte = dosed compound, non-compartmental analysis, read-out: AUCall, Geo Mean
[12] = male, C57BL/6, mouse, plasma, iv, 2 mg/kg, IV, 2 mg/kg (valine conjugates 2 mg/kg EQV), read-out: Cmax, Geo Mean
[13] = male, C57BL/6, mouse, plasma, po, 40 mg/kg, PO, 40 mg/kg (valine conjugates 40 mg/kg EQV), analyte = dosed compound, non-compartmental analysis, read-out: AUCall, Geo Mean
[14] = male, C57BL/6, mouse, plasma, po, 40 mg/kg, PO, 40 mg/kg (valine conjugates 40 mg/kg EQV), read-out: Cmax, Geo Mean
[15] = male, C57BL/6, mouse, plasma, IV, 2 mg/kg (valine conjugates 2 mg/kg EQV), read-out: Tmax, Geo Mean
[16] = male, C57BL/6, mouse, plasma, PO, 40 mg/kg (valine conjugates 40 mg/kg EQV), read-out: Tmax, Geo Mean
[17] = male, C57BL/6, mouse, plasma, single IV dose, 2 mg/kg or molar equivalent, read-out: Systemic clearance following an IV dose (converted)
[18] = male, C57BL/6, mouse, in vivo, iv, 2 mg/kg
[19] = male, C57BL/6, mouse, in vivo, po, 40 mg/kg

CC(C)[C@H](N)C(=O)OCCOCn1cnc2c(=O)[nH]c(N)nc21 [valacyclovir]
Formation of the cleaved parent ([1]; 360 min): readily detectable acyclovir
Percentage of pro-drug remaining intact ([1]; 6 h (360 min)): 37.7%
Formation of the cleaved parent ([2]; 360 min): readily detectable acyclovir
Percentage of pro-drug remaining intact ([2]; 6 h (360 min)): 66.4%

O=C(Nc1ccc(C(F)(F)F)cc1Cl)c1cc(Cl)ccc1O [compound #7]
IC50 (THLE-2): 310 nM
IC50 (Primary Male Hepatocytes; Hepatocyte, 72 h): > 30000 nM
IC50 (SNU475): 6600 nM
IC50 (SNU475; Homo sapiens, SNU-475, 72 h): 4000 nM
Cell viability within hollow fibers (MTT assay) (SNU475 cells [3]): no differences in cell viability
HL_Lambda_z, Geo Mean [4, 8]: 4.85 h
IV: Clobs, Geo Mean [4, 9]: 0.04 L/h
HL_Lambda_z, Geo Mean [4, 10]: 3.58 h
PO: Cl_Fobs, Geo Mean [4, 10]: 0.21 L/h
Expected plasma levels for up to 8 h post-dose ([4]; linearly scaled from PK data, BID 75 mg/kg niclosamide, 105.7 mg/kg valine–niclosamide, 87.3 mg/kg valine–compound #7, 62.9 mg/kg compound #7): 0.86 µM
AUC [4, 11]: 3.7 µM·h
Cmax [4, 12]: 6.98 µM
AUC ([4]; male, C57BL/6, mouse, plasma, po, 40 mg/kg, PO 40 mg/kg of the parent compound, read-out: AUCall following an oral dose of the unconjugated compound): 13 µM·h
Cmax ([4]; male, C57BL/6, mouse, plasma, po, 40 mg/kg, PO 40 mg/kg of the parent compound, read-out: Cmax following an oral dose of the unconjugated compound): 5.78 µM
AUC [4, 13]: 13 µM·h
Cmax [4, 14]: 5.79 µM
Tmax [4, 15]: 4.8 min
Tmax [4, 16]: 15 min
clearance [4, 17]: 0.667 mL/min
Decrease of AR protein levels compared to enzalutamide and sorafenib (AR-SV): more effectively decrease AR protein levels
IC50 (SNU423): 280 nM
IC50 (HepG2; Homo sapiens, HepG2, 72 h): 450 nM

O=C(Nc1ccc(C(F)(F)F)cc1)c1cc(Cl)ccc1O [compound #11]
IC50 (THLE-2): 560 nM
IC50 (Primary Male Hepatocytes; listed as Compound #11): 9470 nM
IC50 (Primary Male Hepatocytes; Hepatocyte, 72 h): 9500 nM
IC50 (SNU475): 7200 nM
IC50 (SNU475; listed as Compound #11): 890 nM
HL_Lambda_z, Geo Mean [4, 8]: 0.96 h
IV: Clobs, Geo Mean [4, 9]: 0.03 L/h
HL_Lambda_z, Geo Mean [4, 10]: 2.68 h
PO: Cl_Fobs, Geo Mean [4, 10]: 0.35 L/h
AUC [4, 11]: 5.06 µM·h
Cmax [4, 12]: 11.3 µM
AUC [4, 13]: 7.98 µM·h
Cmax [4, 14]: 6.08 µM
AUC ([4]; male, C57BL/6, mouse, plasma, po, 40 mg/kg, single PO dose, 40 mg/kg or molar equivalent, analyte = dosed compound, read-out: AUCall following an oral dose): 7.98 µM·h
Tmax [4, 15]: 4.8 min
Tmax [4, 16]: 25.2 min
clearance [4, 17]: 0.5 mL/min
Decrease of AR protein levels compared to enzalutamide and sorafenib (AR-SV): more effectively decrease AR protein levels
IC50 (SNU423): 580 nM
IC50 (HepG2; listed as Compound #11): 1860 nM
IC50 (HepG2; Homo sapiens, HepG2, 72 h): 1900 nM

O=C(Nc1ccc([N+](=O)[O-])cc1Cl)c1cc(Cl)ccc1O [Niclosamide, niclosamide, reference compound]
IC50 (THLE-2): 370 nM
SNU475 invasion (SNU475 cells [5]): decreased invasion
Cell viability at 48 h (SNU475 cells [6]): not impacted
IC50 (Primary Male Hepatocytes): 7160 nM
IC50 (Primary Male Hepatocytes; Hepatocyte, 72 h): 7200 nM
Plasma niclosamide concentration 4 h after oral administration [7]: roughly 0.10 µM
IC50 (SNU475): 1330 nM
IC50 (SNU475; Homo sapiens, SNU-475, 72 h): 1300 nM
Cell viability within hollow fibers (MTT assay) (SNU475 cells [3]): no differences in cell viability
Expected plasma levels for up to 8 h post-dose ([4]; C57BL/6, mouse, in vivo): approximately 0.2 µM
PO: Cl_Fobs, Geo Mean ([4]; male, C57BL/6, mouse, in vivo): 0.78 L/h
Tmax [4, 18]: 4.8 min
clearance [4, 18]: 1.33 mL/min
Cmax ([4]; male, C57BL/6, mouse, in vivo, iv, 2 mg/kg, Cmax, Geo Mean): 6.03 µM
AUCall of parent following an oral dose of its valine conjugate [4, 19]: 0.8 µM·h
Tmax [4, 19]: 25.2 min
AUC ([4]; male, C57BL/6, mouse, in vivo, po, 40 mg/kg, AUCall following an oral dose of the unconjugated compound): 3.25 µM·h
Cmax ([4]; male, C57BL/6, mouse, in vivo, po, 40 mg/kg, Cmax following an oral dose of the unconjugated compound): 1.65 µM
Cmax ([4]; male, C57BL/6, mouse, in vivo, po, 40 mg/kg, Cmax, Geo Mean): 1.65 µM
IC50 (SNU423): 250 nM
IC50 (HepG2; Homo sapiens, HepG2, 72 h): 600 nM

Reference: publication PMC12346198 (Cancers, 2025)
